Assay results: patent US20030033631A1, “Method for reducing pest damage to corn by treating transgenic corn seeds with thiamethoxam pesticide” (Monsanto Technology, L.L.C., priority 2000, published 2003)

Test system: western and northern corn rootworm
Experiment: Field trial of corn rootworm feeding damage to corn roots (Iowa 1-6 rating)
Assay type: in vivo
Conditions: Cry3Bb.11231 transgenic corn seeds treated with thiamethoxam (300 or 400 gm AI/100 kg seed) compared with transgenic seeds without pesticide treatment, Iowa 1-6 root rating
Description: Field trials for the determination of efficacy of transgenic event Cry3Bb.11231 in corn seed in combination with corn root worm pesticide seed treatments against western and northern corn rootworm.
Field trials can be run in accordance with pertinent protocols and in conformance with USDA notification requirements. The purpose of the trials is to determine the efficacy of transgenic event Cry3Bb.11231 in corn seed in combination with corn root worm seed treatments against western and northern corn root worm.
For each growing site that is selected, the plot design would included the following:
The following seed treatment combinations can be used for each growing area: […]
The determination of damage by corn rootworm can be made according to the following protocol. […] In that system, the root systems of 10 corn plants per plot are recovered and scored using the 1-6 rating scale, where: 1=no injury or only a few minor feeding scars, 2=feeding injury evident, but no roots eaten back to 1½ inches of the plant, 3=at least one root eaten off to within 1½ inches of the plant, but never an entire node of roots destroyed, 4=one node of roots eaten back to within 1½ inches of the plant, 5=two nodes (circles) of roots eaten back to within 1½ inches of the plant, 6=three nodes (circles) of roots eaten back to within 1½ inches of the plant.

Compound: CN1COCN(Cc2cnc(Cl)s2)/C1=N\[N+](=O)[O-] [thiamethoxam, 3-[(2-chloro-5-thiazolyl)mehthyl]tetrahydro-5-methyl-N-nitro-4H-1,3,5-oxadiazin-4-imine]
- resistance to corn rootworm damage: more resistant to corn rootworm damage than the transgenic seeds without such pesticide treatment
